The target in the assay is DGKα (Homo sapiens, UniProt P23743). Kind of assay: Human DGKα kinase activity inhibition assay (ADP-Glo). The following applies: in vitro human DGKα kinase activity inhibition assay. The format is biochemical. The method in brief:
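C-terminally FLAG-tagged full-length human DGKα from baculovirus/insect cells (typically ~0.1 nM) phosphorylated 1,2-dioleoyl-sn-glycerol in octyl-β-D-glucopyranoside micelles in MOPS pH 7.4. ADP formed was quantified by ADP-Glo luminescence after 1 h ATP depletion at 22 °C.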

The source of these data is patent US20230062100A1, “SUBSTITUTED AMINOQUINOLONES AS DGKALPHA INHIBITORS FOR IMMUNE ACTIVATION” (Bayer Aktiengesellschaft, priority 2019, published 2023).

DGKα, sequence (P23743 with tags, fused parts or gaps): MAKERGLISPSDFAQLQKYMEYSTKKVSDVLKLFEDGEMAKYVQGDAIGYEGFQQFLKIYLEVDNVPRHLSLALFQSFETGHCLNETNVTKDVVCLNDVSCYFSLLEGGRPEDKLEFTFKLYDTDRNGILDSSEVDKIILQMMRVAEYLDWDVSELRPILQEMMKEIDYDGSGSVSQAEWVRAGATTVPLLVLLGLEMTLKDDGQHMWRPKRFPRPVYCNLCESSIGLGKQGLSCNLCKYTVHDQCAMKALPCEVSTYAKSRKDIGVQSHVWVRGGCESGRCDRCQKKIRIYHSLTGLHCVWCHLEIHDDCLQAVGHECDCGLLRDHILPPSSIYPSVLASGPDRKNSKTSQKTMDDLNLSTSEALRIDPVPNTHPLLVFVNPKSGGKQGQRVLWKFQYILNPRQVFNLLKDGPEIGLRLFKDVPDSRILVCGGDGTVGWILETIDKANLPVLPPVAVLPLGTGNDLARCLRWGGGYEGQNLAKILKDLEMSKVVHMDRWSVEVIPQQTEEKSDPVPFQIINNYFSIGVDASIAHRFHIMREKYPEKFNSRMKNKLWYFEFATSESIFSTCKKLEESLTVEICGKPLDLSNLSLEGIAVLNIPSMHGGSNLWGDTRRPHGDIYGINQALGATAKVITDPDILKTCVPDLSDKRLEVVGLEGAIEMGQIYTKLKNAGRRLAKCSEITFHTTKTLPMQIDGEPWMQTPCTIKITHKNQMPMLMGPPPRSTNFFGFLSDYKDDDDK

In turn, `Cn1c(=O)c(C#N)c(N2CCC(Oc3ccc(OC(F)(F)F)cc3)CC2)c2ccc(P(C)(C)=O)cc21` [Example 79, 7-(dimethylphosphoryl)-1-methyl-2-oxo-4-{4-[4-(trifluoromethoxy)phenoxy]piperidin-1-yl}-1,2-dihydroquinoline-3-carbonitrile] had an IC50 of 416 nM. In other words, the sub-micromolar range.
Take `CN1CCN(c2ccc3c(N4CCC(Oc5cccc(Cl)c5)CC4)c(C#N)c(=O)n(C)c3c2)CC1` [Example 80, 4-[4-(3-chlorophenoxy)piperidin-1-yl]-1-methyl-7-(4-methylpiperazin-1-yl)-2-oxo-1,2-dihydroquinoline-3-carbonitrile]: half-maximal inhibition (IC50) was put at 534 nM.
In the case of `COCCOc1ccc2c(N3CCC(Oc4ccc(OC(F)(F)F)cc4)CC3)c(C#N)c(=O)n(C)c2c1` [Example 81, 7-(2-methoxyethoxy)-1-methyl-2-oxo-4-{4-[4-(trifluoromethoxy)phenoxy]piperidin-1-yl}-1,2-dihydroquinoline-3-carbonitrile] it was 3 nM; in that of `Cn1c(=O)c(C#N)c(N2CCC(Oc3ccc(OC(F)(F)F)cc3)CC2)c2ccc(N3CCCC3=O)cc21` [Example 82, 1-methyl-2-oxo-7-(2-oxopyrrolidin-1-yl)-4-{4-[4-(trifluoromethoxy)phenoxy]piperidin-1-yl}-1,2-dihydroquinoline-3-carbonitrile], 12 nM; in that of `Cn1c(=O)c(C#N)c(N2CCC(Sc3ccccc3)CC2)c2ccc(N3CCCC3=O)cc21` [Example 83, 1-methyl-2-oxo-7-(2-oxopyrrolidin-1-yl)-4-[4-(phenylsulfanyl)piperidin-1-yl]-1,2-dihydroquinoline-3-carbonitrile], 14 nM.
In the case of `Cn1c(=O)c(C#N)c(N2CCC(Oc3ccc(F)cc3)CC2)c2ccc(N3CCCC3=O)cc21` [Example 84, 4-[4-(4-fluorophenoxy)piperidin-1-yl]-1-methyl-2-oxo-7-(2-oxopyrrolidin-1-yl)-1,2-dihydroquinoline-3-carbonitrile], the IC50 was 25 nM. Compared with the last molecule, the IC50 is about 1.8-fold higher.
The same measure for `Cn1c(=O)c(C#N)c(N2CCC(Oc3ccc(Cl)cc3)CC2)c2ccc(N3CCCC3=O)cc21` [Example 85, 4-[4-(4-chlorophenoxy)piperidin-1-yl]-1-methyl-2-oxo-7-(2-oxopyrrolidin-1-yl)-1,2-dihydroquinoline-3-carbonitrile]: 28 nM; for `Cn1c(=O)c(C#N)c(N2CCC(Oc3ccc(C(F)(F)F)cc3)CC2)c2ccc(N3CCCC3=O)cc21` [Example 86, 1-methyl-2-oxo-7-(2-oxopyrrolidin-1-yl)-4-{4-[4-(trifluoromethyl)phenoxy]piperidin-1-yl}-1,2-dihydroquinoline-3-carbonitrile]: 32 nM; for `Cn1c(=O)c(C#N)c(N2CCC(Oc3ccc(C(F)(F)F)cc3)CC2)c2ccc(C3CC3)cc21` [Example 87, 7-cyclopropyl-1-methyl-2-oxo-4-{4-[4-(trifluoromethyl)phenoxy]piperidin-1-yl}-1,2-dihydroquinoline-3-carbonitrile]: 40 nM.
In the case of `Cc1ccc2c(N3CCC(Oc4ccccc4)CC3)c(C#N)c(=O)n(C)c2c1` [Example 88, 1,7-dimethyl-2-oxo-4-(4-phenoxypiperidin-1-yl)-1,2-dihydroquinoline-3-carbonitrile] it was 5.8 nM.
Regarding `COc1ccc2c(N3CCC(Oc4ccccc4)CC3)c(C#N)c(=O)n(C)c2c1` [Example 89, 7-methoxy-1-methyl-2-oxo-4-(4-phenoxypiperidin-1-yl)-1,2-dihydroquinoline-3-carbonitrile], the IC50 stood at 4.7 nM.
In the case of `COc1ccc2c(N3CCC(Sc4ccccc4)CC3)c(C#N)c(=O)n(C)c2c1` [Example 90, 7-methoxy-1-methyl-2-oxo-4-[4-(phenylsulfanyl)piperidin-1-yl]-1,2-dihydroquinoline-3-carbonitrile] it was 1.7 nM.
In the case of `Cn1c(=O)c(C#N)c(N2CCC(Cc3ccccc3)CC2)c2ccccc21` [Example 91, 4-(4-benzylpiperidin-1-yl)-1-methyl-2-oxo-1,2-dihydroquinoline-3-carbonitrile] it was 4.5 nM; in that of `Cn1c(=O)c(C#N)c(N2CCC(Cc3ccc(F)cc3)CC2)c2ccccc21` [Example 92, 4-{4-[(4-fluorophenyl)methyl]piperidin-1-yl}-1-methyl-2-oxo-1,2-dihydroquinoline-3-carbonitrile], 6.2 nM.
In the case of `Cn1c(=O)c(C#N)c(N2CCC(Cc3nc4ccccc4s3)CC2)c2ccccc21` [Example 93, 4-{4-[(1,3-benzothiazol-2-yl)methyl]piperidin-1-yl}-1-methyl-2-oxo-1,2-dihydroquinoline-3-carbonitrile] it was 39 nM; in that of `COc1ccccc1CC1CCN(c2c(C#N)c(=O)n(C)c3ccccc23)CC1` [Example 94, 4-{4-[(2-methoxyphenyl)methyl]piperidin-1-yl}-1-methyl-2-oxo-1,2-dihydroquinoline-3-carbonitrile], 28 nM; in that of `Cn1c(=O)c(C#N)c(N2CCC(Cc3ccc(C#N)cc3)CC2)c2ccccc21` [Example 95, 4-{4-[(4-cyanophenyl)methyl]piperidin-1-yl}-1-methyl-2-oxo-1,2-dihydroquinoline-3-carbonitrile], 15 nM.
`Cn1c(=O)c(C(N)=O)c(N2CCC(Oc3ccc(OC(F)(F)F)cc3)CC2)c2ccc(N3CCCC3=O)cc21` [Example 96, 1-methyl-2-oxo-7-(2-oxopyrrolidin-1-yl)-4-{4-[4-(trifluoromethoxy)phenoxy]piperidin-1-yl}-1,2-dihydroquinoline-3-carboxamide] displayed an IC50 of 12 nM.
In the case of `Cn1c(=O)c(C(N)=O)c(N2CCC(Oc3ccc(Cl)cc3)CC2)c2ccc(N3CCCC3=O)cc21` [Example 97, 4-[4-(4-chlorophenoxy)piperidin-1-yl]-1-methyl-2-oxo-7-(2-oxopyrrolidin-1-yl)-1,2-dihydroquinoline-3-carboxamide] it was 122 nM.
The same measure for `Cn1c(=O)c(C(N)=O)c(N2CCC(Oc3ccc(OC(F)(F)F)cc3)CC2)c2ccc(Cl)cc21` [Example 98, 7-chloro-1-methyl-2-oxo-4-{4-[4-(trifluoromethoxy)phenoxy]piperidin-1-yl}-1,2-dihydroquinoline-3-carboxamide]: 1.9 nM.
On to `Cn1c(=O)c(C(N)=O)c(N2CCC(Oc3ccc(OC(F)(F)F)cc3)CC2)c2ccc(F)cc21` [Example 99, 7-fluoro-1-methyl-2-oxo-4-{4-[4-(trifluoromethoxy)phenoxy]piperidin-1-yl}-1,2-dihydroquinoline-3-carboxamide], for which 1.2 nM corresponded to half-maximal inhibition (IC50).
In the case of `Cn1c(=O)c(C#N)c(N2CCC(OCc3ccccc3)CC2)c2ccccc21` [Example 106, 4-[4-(benzyloxy)piperidin-1-yl]-1-methyl-2-oxo-1,2-dihydroquinoline-3-carbonitrile] it was 8.3 nM; in that of `Cc1ccc(COC2CCN(c3c(C#N)c(=O)n(C)c4ccccc34)CC2)cc1` [Example 107, 1-methyl-4-{4-[(4-methylphenyl)methoxy]piperidin-1-yl}-2-oxo-1,2-dihydroquinoline-3-carbonitrile], 7.2 nM; in that of `Cc1cccc(COC2CCN(c3c(C#N)c(=O)n(C)c4ccccc34)CC2)c1` [Example 108, 1-methyl-4-{4-[(3-methylphenyl)methoxy]piperidin-1-yl}-2-oxo-1,2-dihydroquinoline-3-carbonitrile], 10 nM.
On to `COc1ccc(COC2CCN(c3c(C#N)c(=O)n(C)c4ccccc34)CC2)cc1` [Example 109, 4-{4-[(4-methoxyphenyl)methoxy]piperidin-1-yl}-1-methyl-2-oxo-1,2-dihydroquinoline-3-carbonitrile], for which the IC50 came out at 16 nM.
In the case of `Cn1c(=O)c(C#N)c(N2CCC(OCc3ccc(F)cc3)CC2)c2ccccc21` [Example 110, 4-{4-[(4-fluorophenyl)methoxy]piperidin-1-yl}-1-methyl-2-oxo-1,2-dihydroquinoline-3-carbonitrile] it was 5.3 nM; in that of `Cn1c(=O)c(C#N)c(N2CCC(OCc3ccccc3F)CC2)c2ccccc21` [Example 111, 4-{4-[(2-fluorophenyl)methoxy]piperidin-1-yl}-1-methyl-2-oxo-1,2-dihydroquinoline-3-carbonitrile], 4.8 nM.
In the case of `Cn1c(=O)c(C#N)c(N2CCC(OCc3cccc(F)c3)CC2)c2ccccc21` [Example 113, 4-{4-[(3-fluorophenyl)methoxy]piperidin-1-yl}-1-methyl-2-oxo-1,2-dihydroquinoline-3-carbonitrile] it was 12 nM; in that of `Cc1ccccc1COC1CCN(c2c(C#N)c(=O)n(C)c3ccccc23)CC1` [Example 114, 1-methyl-4-{4-[(2-methylphenyl)methoxy]piperidin-1-yl}-2-oxo-1,2-dihydroquinoline-3-carbonitrile], 16 nM; in that of `COc1cccc(COC2CCN(c3c(C#N)c(=O)n(C)c4ccccc34)CC2)c1` [Example 115, 4-{4-[(3-methoxyphenyl)methoxy]piperidin-1-yl}-1-methyl-2-oxo-1,2-dihydroquinoline-3-carbonitrile], 29 nM.
The same measure for `Cn1c(=O)c(C#N)c(N2CCC(COc3ccc(Cl)cc3)CC2)c2ccccc21` [Example 116, 4-{4-[(4-chlorophenoxy)methyl]piperidin-1-yl}-1-methyl-2-oxo-1,2-dihydroquinoline-3-carbonitrile]: 6.4 nM.
`COc1ccccc1COC1CCN(c2c(C#N)c(=O)n(C)c3ccccc23)CC1` [Example 117, 4-{4-[(2-methoxyphenyl)methoxy]piperidin-1-yl}-1-methyl-2-oxo-1,2-dihydroquinoline-3-carbonitrile] returned an IC50 of 6 nM.
The same measure for `Cn1c(=O)c(C#N)c(N2CCC(COc3ccccc3)CC2)c2ccccc21` [Example 118, 1-methyl-2-oxo-4-[4-(phenoxymethyl)piperidin-1-yl]-1,2-dihydroquinoline-3-carbonitrile]: 123 nM.
In the case of `Cn1c(=O)c(C#N)c(N2CCC(COc3cccc(Cl)c3)CC2)c2ccccc21` [Example 119, 4-{4-[(3-chlorophenoxy)methyl]piperidin-1-yl}-1-methyl-2-oxo-1,2-dihydroquinoline-3-carbonitrile] it was 34 nM.

For orientation: IC50 means the concentration that gives 50% inhibition. High values mean lower potency, low ones higher potency.
